# Experiments:
# Experiment in all cases: relative viability (nuclei count vs DMSO), 5 days (fraction); higher = more cells survive
# [1] = compound: C=CCNC1=C2C[C@@H](C)C[C@H](OC)[C@H](O)[C@@H](C)/C=C(\C)[C@H](OC(N)=O)[C@@H](OC)/C=C\C=C(/C)C(=O)NC(=CC1=O)C2=O [17-AAG] + Cc1cc(Nc2cc(N3CCN(C)CC3)nc(Sc3ccc(NC(=O)C4CC4)cc3)n2)n[nH]1 [Tozasertib] (partner 0.1 µM)
# How it was run: (§1)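 For relative viability, nuclei counts in treated wells were divided by those in vehicle wells. Lung cancer cell lines had been pin-tool dosed in 1536-well plates the day after seeding and cultured for 5 days, then fixed and stained in one step (final 0.05% Triton X-100, 1% formaldehyde, 1 ug/ml Hoechst) and imaged at 4×. Doses were one drug alone or a fixed anchor-drug dose plus five library-drug doses (not always all listed) in √10 steps, and values are duplicate-plate medians.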
# [2] = compound: C=CCNC1=C2C[C@@H](C)C[C@H](OC)[C@H](O)[C@@H](C)/C=C(\C)[C@H](OC(N)=O)[C@@H](OC)/C=C\C=C(/C)C(=O)NC(=CC1=O)C2=O [17-AAG] + CCNC(=O)c1noc(-c2cc(C(C)C)c(O)cc2O)c1-c1ccc(CN2CCOCC2)cc1 [Luminespib] (partner 0.01 µM)
# How it was run: as §1
# [3] = compound: C=CCNC1=C2C[C@@H](C)C[C@H](OC)[C@H](O)[C@@H](C)/C=C(\C)[C@H](OC(N)=O)[C@@H](OC)/C=C\C=C(/C)C(=O)NC(=CC1=O)C2=O [17-AAG] + Cc1nc(Nc2ncc(C(=O)Nc3c(C)cccc3Cl)s2)cc(N2CCN(CCO)CC2)n1 [Dasatinib] (partner 0.075 µM)
# How it was run: as §1
# [4] = compound: C=CCNC1=C2C[C@@H](C)C[C@H](OC)[C@H](O)[C@@H](C)/C=C(\C)[C@H](OC(N)=O)[C@@H](OC)/C=C\C=C(/C)C(=O)NC(=CC1=O)C2=O [17-AAG] + Cc1nc(NC(=O)N2CCC[C@H]2C(N)=O)sc1-c1ccnc(C(C)(C)C(F)(F)F)c1 [Alpelisib] (partner 2 µM)
# How it was run: as §1
Cell Line,relative viability ([1]; first compound 0.00128 µM),relative viability ([1]; first compound 0.004048 µM),relative viability ([1]; first compound 0.0128 µM),relative viability ([1]; first compound 0.04048 µM),relative viability ([1]; first compound 0.128 µM),relative viability ([2]; first compound 0.00128 µM),relative viability ([2]; first compound 0.004048 µM),relative viability ([2]; first compound 0.0128 µM),relative viability ([2]; first compound 0.04048 µM),relative viability ([2]; first compound 0.128 µM),relative viability ([3]; first compound 0.00128 µM),relative viability ([3]; first compound 0.004048 µM),relative viability ([3]; first compound 0.0128 µM),relative viability ([3]; first compound 0.04048 µM),relative viability ([3]; first compound 0.128 µM),relative viability ([4]; first compound 0.00128 µM),relative viability ([4]; first compound 0.004048 µM),relative viability ([4]; first compound 0.0128 µM),relative viability ([4]; first compound 0.04048 µM),relative viability ([4]; first compound 0.128 µM)
RERF-LC-KJ,0.551,0.754,0.293,0.275,0.257,1.06,0.595,0.398,0.357,0.325,0.742,0.833,0.276,0.266,0.248,0.957,0.829,0.759,0.291,0.277
SK-LU-1,0.426,0.243,0.128,0.152,0.139,0.215,0.174,0.176,0.177,0.15,0.154,0.0796,0.0621,0.0687,0.0526,0.961,0.327,0.188,0.237,0.165
SK-MES-1,0.872,0.851,0.168,0.164,0.143,0.633,0.327,0.181,0.166,0.157,0.358,0.249,0.11,0.106,0.101,0.884,0.842,0.553,0.144,0.152
SW 1573,0.234,0.254,0.117,0.104,0.0907,0.285,0.168,0.146,0.12,0.0673,0.699,0.461,0.135,0.136,0.0753,0.817,0.716,0.648,0.158,0.109
UMC-11,0.222,0.219,0.225,0.217,0.222,0.973,0.94,0.552,0.254,0.196,0.464,0.455,0.376,0.232,0.162,1.05,0.855,0.658,0.211,0.129

# Reference: the supplement of paper PMC10307832
